Experimental data published in patent US6541490B1, “Bipyridine manganese complexes” (Eukarion, Inc., priority 1998, dated 2003).

Assays:
Format in all cases: biochemical
[1] = Catalase (CAT) assay: removal of hydrogen peroxide, HRP/ABTS read-out; conditions: amount of hydrogen peroxide removed per minute, per mmol of compound; 0.05M Tris HCl pH 7.4, 25° C., 60 mins
Text: This method measures catalase activity as the ability to remove hydrogen peroxide from solution in the absence of hydrogen donors over one hour. After this time any remaining peroxide was removed by introduction to the mixture of high concentrations of horseradish peroxidase and the hydrogen donor 2,2′-azino-di-[3-ethyl-benzothiazoline-(6)-sulphonic acid (ABTS). This rapid reaction produces peroxide-concentration-dependant product with a maximal absorbance at 405 nm.
(§1) The assays for compound antioxidant activity were carried out in 96-well microtitre plates using a DIAS modular assay robot instrument (Dynatech Ltd.) Compounds were solublised in DMF at 10 mM. DMF concentrations in the assay never exceeded 1%, were tolerated and were controlled for in assay plates.
Hydrogen peroxide (Sigma H1009) 100 mM was incubated with various concentrations of compound in 0.05M Tris HCI pH 7.4 at 25° C. for 60 mins. […] Plates were then read for absorbance at 405 nm. A standard curve for absorbance against known hydrogen peroxide concentration was constructed. Absorbance data for wells containing compound were interpolated against this curve using the software tools Excel (Microsoft Corp.) and Xlfit (ID Business Solutions). […]
The catalase assay procedure described above provides certain advantages over previously described assays. […] The oxidation of ABTS results in a colour change which can be measured. […]

[2] = Peroxidase (POD) assay: hydrogen peroxide removal with hydrogen donor ABTS; conditions: ABTS 3 mM, 0.05M Tris HCl pH 7.4, 25° C., 2 minutes, interpolated against horseradish peroxidase standard curve
Procedure: This method measures the ability of the compounds to remove hydrogen peroxide in the presence of the hydrogen donor 2,2′-azino-di-[3-ethyl-benzothiazoline-(6)-sulphonic acid (ABTS) (Galati, H., J. Clin. Chem. Clin. Biochem. (1979) 17, 1-7).
as §1
ABTS (Sigma A-1888) 3 mM was incubated with various concentrations of compound in 0.05M Tris HCI pH 7.4 at 25° C. A range of standard concentrations of horseradish peroxidase (Sigma P-6140) were included on each microtitre plate. Hydrogen peroxide (Sigma H1009) 100 mM was added and the plate incubated at 25° C. for 2 minutes. Absorbance at 405 nm was measured and the rates of ABTS […] calculated. A standard curve was constructed using data from wells containing known concentrations of peroxidase. Data for wells containing compound were interpolated against this curve using the software tools Excel (Microsoft Corp.) and Xlfit (ID Business Solutions). Estimations of peroxidase activity were given as International Units of peroxidase activity/mmol compound.

[3] = Superoxide dismutase (SOD) assay: xanthene oxidase/hypoxanthene, XTT reduction; conditions: SOD activity from IC50 of XTT reduction (one International Unit), normalised; 0.05M Tris/HCl pH 7.4, 25° C.
Procedure: This method is adapted from what has become the standard method for the measurement of SOD activity (McCord J. M., Fridovich, I., J. Biol. Chem. 244, 6049-6055, 1969). Briefly, a steady-state production of superoxide anion was maintained by the action of xanthene oxidase (XO) on hypoxanthene (HX) at physiological pH. Presence of the anion was measured by the reduction of XTT (3′-{1-(phenylamino)-carbonyl]-3,4-tetrazolium]-bis(4-methoxy-6-nitro)benzsulphonic acid to a water-soluble product with an absorbance maximum at ˜470 nm. Hypoxanthene concentrations were titrated so as to give a steady-state rate of XTT reduction of 0.025 Optical Density Units (OD) per minute at 25° C.
as §1
Xanthene oxidase (Sigma X1875) 0.01 U/ml and XTT (Sigma X4251), 0.5 mM and hypoxanthene (Sigma H9377), typically at […], were incubated in the presence of various doses of compounds at 25° C. in 0.05M Tris/HCI pH 7.4. Rates of XTT reduction were measured over 5 minutes at 490 nm. Dose-response curves were constructed for inhibition by the compound of control rates of XTT reduction. […]

## CCCCCCc1cccc2c1[O][Mn]([O]C(C)=O)[O]c1c(CCCCCC)cccc1-c1cccc(n1)-c1cccc-2n1 [Example 18, 6,6′-bis(3-Hexyl-2-hydroxyphenyl)-2,2′-bipyridine-manganese(III)acetate]
[1]
  CAT: 0.0083
[2]
  POD: 209.92 International Units of peroxidase activity/mmol compound
[3]
  SOD: 41.43 U/mmol compound
